For data set [1], the system named is c-myc mRNA, BV173. As to the kind of experiment: c-myc mRNA levels, real time RT-PCR. The data set is classed as cell-based. The procedure: (§1) RNA was extracted from 10^6 cells using TRIZOL® Reagent (Life Technologies). Following isopropanol precipitation, the pellet was washed in 75% aqueous ethanol and the RNA was dissolved in […] of diethyl pyrocarbonate (DEPC)-treated distilled water. Subsequently, the samples were stored at −80° C. RNA quantitation was performed by UV measurement at 260 nm. The cDNA synthesis was performed in a total volume of […], containing 1×TaqManÒ RT buffer, 5.5 mM MgCl2, 2 mM dNTPs mixture, 2.5 mM random hexamers, 4 U RNase inhibitor, 12.5 U MultiScriber RT (Perkin Elmer/Applied Biosystems) and […] of RNA. The reaction was performed for 10 min at 25° C., followed by 48° C. for 30 min and a 5 min incubation step at 95° C. After the reaction, […] of DEPC-treated distilled water was added to each sample and […] was used for each PCR.
(§2) The PCR and subsequent analyses were performed in the GeneAmp 5700 Sequence Detection System (Applied Biosystems). Real-time quantitation was performed using the TaqMan technology of Applied Biosystems (Foster City, Calif., USA). c-Myc primers and probe sequences (5′ to 3′) were as follows: […], […] and […] (Applied Biosystems).
(§3) PCR reactions were performed in triplicate. The PCR reaction mixture contained 300 nM of both primers, 150 nM TaqMan probe, and 1×TaqMan Universal Master Mix (Applied Biosystems). The reactions first were incubated at 50° C. for 2 min, followed by 10 min at 95° C. The PCR itself consisted of 40 cycles with 15 s at 95° C. and 1 min at 60° C. each. The fluorescence signal was measured during the last 30 s of the annealing/extension phase. After the PCR, a fluorescence threshold value was set and threshold cycle (Ct) values were determined, i.e., the fractional cycle at which the fluorescence signal reached this threshold. These values were used for further calculations.
(§4) β-Actin (TaqMan PDAR control, Applied Biosystems) was used as an endogenous reference to correct for any differences in the amount of total RNA used for a reaction and to compensate for different levels of inhibition during reverse transcription of RNA into cDNA. c-Myc and β-actin expression were related to a standard curve derived from a serial dilution of K562 cDNA with dH2O. Also, c-Myc and β-actin quantities were expressed in terms of ng of K562 RNA yielding the same level of expression. Subsequently, normalization was achieved by dividing the expression level of c-Myc by the β-actin expression level. Finally, results were expressed as a percentage, where the level of c-Myc observed in the DMSO-treated samples was considered as 100%.
(§5) Cells were treated with brusatol (25 ng/ml) or bruceantin (10 ng/ml) for 4 or 24 h and then analyzed for c-myc and β-actin mRNA using real time RT-PCR. Results are shown as percentage of c-myc mRNA expression of control (0.1%, v/v, DMSO) values. Results are the mean of triplicate samples (±standard deviation). c-Myc mRNA values were normalized relative to β-actin.
A general note: Real-time PCR tracks product formation cycle by cycle.

Data set [2] deals with c-myc mRNA, Daudi. As to the kind of experiment: c-myc mRNA levels, real time RT-PCR. The data set is classed as cell-based. The protocol:
as §1, §2, §3, §4, §5

The subject of data set [3] is c-myc mRNA, K562. As to the kind of experiment: c-myc mRNA levels, real time RT-PCR. Type of data set: cell-based. The protocol:
as §1, §2, §3, §4, §5

Data set [4] deals with c-myc mRNA, Kasumi-1. As to the kind of experiment: c-myc mRNA levels, real time RT-PCR. Type of data set: cell-based. The protocol:
as §1, §2, §3, §4, §5

Data set [5] deals with c-myc mRNA, NB4. As to the kind of experiment: c-myc mRNA levels, real time RT-PCR. Type of data set: cell-based. The procedure: as §1, §2, §3, §4, §5
Data set [6] deals with c-myc mRNA, RS4;11. As to the kind of experiment: c-myc mRNA levels, real time RT-PCR. Type of data set: cell-based. The protocol:
as §1, §2, §3, §4, §5

For data set [7], the system named is c-myc mRNA, Reh. As to the kind of experiment: c-myc mRNA levels, real time RT-PCR. Type of data set: cell-based. The protocol: as §1, §2, §3, §4, §5
The test system of data set [8] is c-myc mRNA, SUPB13. As to the kind of experiment: c-myc mRNA levels, real time RT-PCR. The data set is classed as cell-based. The procedure: as §1, §2, §3, §4, §5
The test system of data set [9] is c-myc mRNA, U937. As to the kind of experiment: c-myc mRNA levels, real time RT-PCR. Type of data set: cell-based. The protocol: as §1, §2, §3, §4, §5
Data set [10] in a line: HL-60 cytotoxicity of quassinoids, trypan blue exclusion. The data set is classed as cell-based, human. The note with it: human. The protocol:
Induction of differentiation was determined by the ability of treated cells to produce superoxide anions (nitroblue tetrazolium (NBT)-reduction), a functional marker of mature macrophages or granulocytes. Proliferation capacity is equivalent to cell growth and was measured by incorporation of [3H]thymidine into DNA over a period of 18 h, and cytotoxic activity was evaluated by the loss of membrane integrity as shown by trypan blue exclusion. […] Although members of the brusatol and glaucarubolone series were active, when comparing members of both series that varied only in the positioning of the epoxymethano bridge, great differences were noted, as shown with yadianzolide C (5) and glaucarubolone (24), and analogues 4 (brusatol series) and 32 (glaucarubolone series).
HL-60 (human promyelocytic) cells were tested using a 4-day incubation protocol. In brief, cells in log phase (approximately 10^6 cells/mL) were diluted to […] and preincubated overnight (18 h) in 24-well plates to allow cell-growth recovery. Then, samples dissolved in DMSO were added, keeping the final DMSO concentration at 0.1% (v/v). Control cultures were treated with the same concentration of DMSO. After 4 days of incubation, the cells were analyzed to determine the percentage of cells undergoing maturation as determined by NBT reduction. Concomitantly, the effect on viability and proliferation of HL-60 cells was determined. In each experiment, 1α, 25-dihydroxyvitamin D3 (EC50=0.01 μM) and brusatol (EC50=0.07 μM) were used as reference controls. EC50 and IC50 values were calculated using 5-7 test concentrations (in duplicate), and consistent results were obtained, indicating the data reported for the related quassinoids are reliable.
(2) Cytotoxicity. Since loss of membrane integrity is an early feature of necrotic cells and a late feature of apoptotic cells, trypan blue, a […] blue dye, was used to stain cells with compromised plasma membranes, while leaving intact cells unstained. Cells […] of trypan blue (0.2% w/v in PBS), incubated for at least 5 min at room temperature, and counted using a hematocytometer. Viability percentages were calculated with duplicate samples.

Read-outs that look alike come from different tables or passages of the source.

As a reminder, the IC50 is the midpoint of a concentration-inhibition curve.

On to `COC(=O)[C@@]12OC[C@]34[C@H]([C@@H](O)[C@@H]1O)[C@@]1(C)CC(=O)C(O)=C(C)[C@@H]1C[C@H]3OC(=O)[C@H](OC(=O)C=C(C)C)[C@@H]24` [compound 1, brusatol], for which the “c-myc mRNA expression, percentage of control” value is recorded as 78 ± 12 % in [1] (Brusatol (25 ng/ml), 4 h); 45 ± 0 % in [1] (Brusatol (25 ng/ml), 24 h); 100 ± 7% in [2] (Brusatol (25 ng/ml), 4 h); 84 ± 1 % in data set [2] (Brusatol (25 ng/ml), 24 h); 62 ± 4 % in [3] (Brusatol (25 ng/ml), 4 h); 45 ± 6 % in [3] (Brusatol (25 ng/ml), 24 h). Besides, the “c-myc mRNA expression, percentage of control” value is on record as 27 ± 5 % in data set [4] (Brusatol (25 ng/ml), 4 h); 31 ± 3 % in data set [4] (Brusatol (25 ng/ml), 24 h); 34 ± 4 % in [5] (Brusatol (25 ng/ml), 4 h); 24 ± 3 % in [5] (Brusatol (25 ng/ml), 24 h); 37 ± 2 % in data set [6] (RS4,11, Brusatol (25 ng/ml), 24 h); 54 ± 5 % in data set [6] (RS4;11, Brusatol (25 ng/ml), 4 h). For the same compound, the “c-myc mRNA expression, percentage of control” value is reported as 87 ± 2% in data set [7] (Brusatol (25 ng/ml), 4 h); 38 ± 3 % in data set [7] (Brusatol (25 ng/ml), 24 h); 27 ± 3 % in data set [8] (Brusatol (25 ng/ml), 4 h); 24 ± 1 % in data set [8] (Brusatol (25 ng/ml), 24 h); 103 ± 1% in data set [9] (Brusatol (25 ng/ml), 4 h); 19 ± 1 % in data set [9] (Brusatol (25 ng/ml), 24 h). The “decrease in c-Myc mRNA levels” value in data set [3] (4 h treatment) is “about 40%”. Further, the IC50 at 4 days in [10] (HL-60 cells, HL-60, 4-day incubation, trypan blue exclusion, read-out: cytotoxicity (IC50)) was 170 ± 1 nM.
`COC(=O)[C@@]12OC[C@]34[C@H]([C@@H](O)[C@@H]1O)[C@@]1(C)CC(=O)C(O)=C(C)[C@@H]1C[C@H]3OC(=O)[C@H](OC(=O)/C=C(\C)C(C)C)[C@@H]24` [compound 2, bruceantin]: the “c-myc mRNA expression, percentage of control” value is reported as 125 ± 11 % in [1] (Bruceantin (10 ng/ml), 4 h); 67 ± 9 % in data set [1] (Bruceantin (10 ng/ml), 24 h); 134 ± 17% in [2] (Bruceantin (10 ng/ml), 4 h); 70 ± 5 % in [2] (Bruceantin (10 ng/ml), 24 h); 55 ± 2 % in data set [3] (Bruceantin (10 ng/ml), 4 h); 33 ± 2 % in [3] (Bruceantin (10 ng/ml), 24 h). For the same compound, the “c-myc mRNA expression, percentage of control” value in data set [4] (Bruceantin (10 ng/ml), 4 h) worked out at 20 ± 2 %; in data set [4] (Bruceantin (10 ng/ml), 24 h), 15 ± 2 %; in [5] (Bruceantin (10 ng/ml), 4 h), 27 ± 4 %; in data set [5] (Bruceantin (10 ng/ml), 24 h), 85 ± 5%; in data set [6] (RS4;11, Bruceantin (10 ng/ml), 4 h), 68 ± 3%; in data set [6] (RS4;11, Bruceantin (10 ng/ml), 24 h), 31 ± 8 %. In addition, the “c-myc mRNA expression, percentage of control” value is given as 68 ± 5 % in data set [7] (Bruceantin (10 ng/ml), 4 h); 42 ± 6 % in data set [7] (Bruceantin (10 ng/ml), 24 h); 38 ± 2 % in data set [8] (Bruceantin (10 ng/ml), 4 h); 24 ± 2 % in [8] (Bruceantin (10 ng/ml), 24 h); 86 ± 1% in data set [9] (Bruceantin (10 ng/ml), 4 h); 19 ± 2 % in data set [9] (Bruceantin (10 ng/ml), 24 h). The IC50 at 4 days in data set [10] was found to be 40 ± 3 nM.
